Data set [1] has as its system human α1β2γ2-GABA-A receptors. Put plainly: Electrophysiological studies, automated patch clamp (QPatch16X), HEK293 cells. The note with it: agonist mode, compound at 10 μM; current amplitude normalized to 10 μM GABA response; ±S.E.M. The class given is cell-based. The method, then: Electrophysiological studies were acquired using the QPatch16X automatic patch clamp platform (Sophion Biosciences) as described before.[42],[43] […] Before the assay, cells were detached from the culture flask by treating them with TrypLE Express solution (Life Technologies) and subsequently suspended in serum-free media. The cells were loaded into a 1.5 mL microtube on the automated electrophysiology instrument, which subsequently performed a spin-down using its built-in centrifuge. Following this, the cells were washed with Ringer’s extracellular solution. The cells were moved to the pipetting wells of a 16-channel planar patch chip plate (QPlate 16X) designed for single-use. A combined suction/voltage protocol was then applied to establish gigaseals. […] During the entire whole-cell recording, the holding potential was maintained at −90 mV. […] The intracellular solution contained 140 mM CsF, 1 mM EGTA, 5 mM CsOH, 10 mM HEPES, 20 mMNaCl (pH 7.2, 320 mOsm). […] The acquired data were examined with QPatch assay software (v5.0, Sophion Biosciences)[44] and are represented as the mean of three separated measurements performed on distinct cells. The efficacy of the tested molecules was determined by calculating the baseline-corrected ratio of the maximum current amplitudes elicited by the tested compounds and the reference agonist (T1-ATG/AG1-ATG or T2-ATG/AG1-ATG). The raw current recordings were standardized and presented as a percentage of the current amplitude evoked by the reference agonist, using the QPatch assay software (v5.0, Sophion Biosciences).

Data set [2] relates to female Wistar rats. Also on record: method as in PMID 36603509. To be noted: not tested here; cited from earlier work.
Data set [3] in a line: Parallel artificial membrane permeability assay (PAMPA). The class given is in vitro ADME. The note with it: tested at 10^–5 M, PAMPA Plate System Gentest. The method, then: To estimate the passive transport through cell membranes, we used specialized PAMPA Plate System Gentest acquired from Corning (Tewksbury, MA, USA). The assay was performed as described in the manufacturer’s protocol. The quantitative measurements of tested molecules in apical and basolateral wells were conducted using LC/MS (Waters ACQUITY TQD system with the TQ detector, Milford, USA) and a specific internal standard. The Pe permeability coefficient was calculated rendering the formulas described previously[47],[47] and compared to the reference compound sulpiride.

We go through two molecules from PMC10119930, “Dual Molecules Targeting 5-HT6 and GABA-A Receptors as a New Approach to Combat Depression Associated with Neuroinflammation” (ACS Chemical Neuroscience, 2023).

Each structure is given as a SMILES string.

As to `NCCCC(=O)O` [GABA], the “[%] of 10 μM GABA activity” value in data set [1] was 100%. Also, the antidepressant effects result in data set [2] is “does not produce antidepressant effects”. The molecule `CCN1CCCC1CNC(=O)c1cc(S(N)(=O)=O)ccc1OC` (stereo not drawn) [sulpiride, reference compound] returned a Papp in data set [3] of 0.016 ×10⁻⁶ cm/s.

For orientation: Papp means the rate of passage across a membrane or cell layer, normalised by area and donor concentration. High values mean fast passage, low ones slow passage.
